The values below come from patent US9610245B2, “Ophthalmic composition” (Drug Delivery Solutions Limited, priority 2011, dated 2017).

The nature of the data set: Ex vivo permeation of cyclosporine through cornea, Ussing diffusion cells. Type of data set: in vitro ADME, rabbit. As to conditions: excipient changed in or added to the Example 1 formulation. As for the experimental part: In order to determine the permeation of cyclosporine (CsA) formulations into and through the cornea, ex vivo studies were conducted. In brief, the corneas from rabbits were taken and mounted onto Ussing diffusion cells incubated at 37° C. and perfused with carbogen (95/5 oxygen/[…]). Approximately 3 ml sample was placed in the donor side of the chamber, 3 ml Ringers solution (6.5 g NaCl, 0.42 g KCl, 0.25 g CaCl2 and […] of Sodium bicarbonate per litre; isotonic solution pH 7.2) was placed in the receptor side of the chamber.
Permeation across the cornea was determined by collecting 200 μl receptor phase at the appropriate time points. At time zero and at 8 hours (termination of the experiment) 100 μl of sample from the donor phase was taken for analysis. Corneas were collected and split into the stomal and epithelial parts. The cyclosporine in the cornea sections were analysed after extraction into 50/50 methanol/water. Levels of CsA in the receptor chamber, the cornea and in the donor chamber were determined by HPLC analysis. Formulations used were based on Example 1. The table below summarises the changes made to this formulation.

For benzalkonium chloride, the “effect of excipient on permeation of CsA into and through the cornea” value is recorded as “no significant effect”.
